Patent publication US20160175318A1, “COMPOSITIONS COMPRISING ANTIBACTERIAL AGENT AND TAZOBACTAM” (WOCKHARDT LIMITED, priority 2013, published 2016)
Like-named read-outs stand apart in the source and are kept apart here.

Columns and labels:
Format in all cases: cell-based
[1] = system: E. cloacae M-20; test: MIC by agar dilution (CLSI) against highly resistant ESBL strain; conditions: E. cloacae M-20
Description: (§1) The results on activity of cefepime and other cephalosporin antibacterial agents in combination with tazobactam against highly resistant ESBL strains are given Table 1. In a typical study, overnight grown bacterial cultures were diluted appropriately and inoculated on the agar media containing doubling dilutions of the antibiotic. Observation for growth or no growth was performed after 16-20 h of incubation at 35±2° C. in ambient air. The overall procedure was performed as per Clinical and Laboratory Standards Institute (CLSI) recommendations. This experimental was followed for Examples 2-4 and 6 below (Table 2-4 and 7).

[2] = system: E. coli 7MP; test: as above; conditions: E. coli 7MP
Description: as §1

[3] = system: E. coli B-89; test: as above; conditions: E. coli B-89
Description: as §1

[4] = system: E. coli M50; test: as above
Description: as §1

[5] = system: K. pneumoniae M150; test: as above; conditions: Klebsiella pneumoniae, M150, K. pneumoniae M150, read-out: MIC
Description: as §1

[6] = system: E. coli 7MP; test: Quantitative drug diffusion assay (disc, zone of inhibition, CLSI); parameters: key to Interpretation of zone as per CLSI recommendations: R: Resistant; I: Intermediate; S: Sensitive (Interpretation as per CLSI recommendations, 2010)
From the text: (§2) Activity of cefepime in combination with tazobactam and various penicillins in combination with respective ESBL inhibitors was also investigated against highly resistant ESBL strains in quantitative drug diffusion assay performed as per CLSI recommendations (Clinical and Laboratory Standards Institute (CLSI), performance Standards for Antimicrobial Susceptibility Testing, 20th Informational Supplement, M 100-S20, Volume 30, No. 1, 2010).
(§3) In a typical study, overnight grown bacterial cultures after appropriate dilution were seed inoculated in the molten, cooled agar media and plates poured. Antibiotics containing 6 mm diameter discs were place on the top of the agar surface. Zone of inhibition based observation was performed after 16-18 h of incubation at 35±2° C. in ambient air. The overall procedure was performed as per CLSI recommendations (Table 5 and 6). These assays are routinely used in determining possibility of treating a particular infection using antibiotic and/or their combinations. For example, in case of treating an infection caused by E. coli (M138) using Augmentin® [commercially available combination: Amoxicillin (500 mg)+Clavulanic acid (125 mg)], the zone inhibition values need to be in the sensitive (S) range.

[7] = system: E. coli B-123; test: as above; parameters: key to Interpretation of zone as per CLSI recommendations: R: Resistant; I: Intermediate; S: Sensitive (Interpretation as per CLSI recommendations, 2010)
From the text: as §2, §3

[8] = system: E. coli B-89; test: as above; parameters: key to Interpretation of zone as per CLSI recommendations: R: Resistant; I: Intermediate; S: Sensitive (Interpretation as per CLSI recommendations, 2010)
From the text: as §2, §3

[9] = system: E. coli M-138; test: as above; parameters: key to Interpretation of zone as per CLSI recommendations: R: Resistant; I: Intermediate; S: Sensitive (Interpretation as per CLSI recommendations, 2010)
From the text: as §2, §3

[10] = system: E. coli M50; test: as above; parameters: key to Interpretation of zone as per CLSI recommendations: R: Resistant; I: Intermediate; S: Sensitive (Interpretation as per CLSI recommendations, 2010)
From the text: as §2, §3

[11] = system: E. coli S-112; test: as above; parameters: key to Interpretation of zone as per CLSI recommendations: R: Resistant; I: Intermediate; S: Sensitive (Interpretation as per CLSI recommendations, 2010)
From the text: as §2, §3

[12] = Enterobacter cloacae, M20, 20 h, Tazobactam 0 mcg (antibiotic alone), read-out: MIC
[13] = Escherichia coli, 7MP, 20 h, Tazobactam 0 mcg (antibiotic alone), read-out: MIC
[14] = Escherichia coli, B89, 20 h, Tazobactam 0 mcg (antibiotic alone), read-out: MIC
[15] = Escherichia coli, 20 h, Tazobactam 0 mcg (antibiotic alone), read-out: MIC
[16] = Tazobactam 0 mcg (antibiotic alone)
[17] = ESBL inhibitor 0 mcg (antibiotic alone)
[18] = Table 5, with Tazobactam 10 mcg
[19] = Table 6, with Tazobactam 10 mcg
[20] = Table 5, with Clavulanic acid 10 mcg
[21] = Table 6, with Clavulanic acid 10 mcg

CCN1CCN(C(=O)N[C@@H](C(=O)N[C@@H]2C(=O)N3[C@@H]2SC(C)(C)[C@@H]3C(=O)O)c2ccccc2)C(=O)C1=O [Piperacillin]
14 mm: Zone of Inhibition ([11]; with Tazobactam 10 mcg)
15 mm: Zone of Inhibition ([8]; with Tazobactam 10 mcg)
> 64 µg/mL: MIC ([5]; with Tazobactam 4 mcg) | MIC ([5]; with Tazobactam 8 mcg)
> 128 µg/mL: MIC [1, 12] | MIC [2, 13] | MIC [3, 14] | MIC [4, 15] | MIC [5, 16]
>64 µg/mL: MIC ([1]; with Tazobactam 4 mcg) | MIC ([1]; with Tazobactam 8 mcg) | MIC ([2]; with Tazobactam 4 mcg) | MIC ([2]; with Tazobactam 8 mcg) | MIC ([3]; with Tazobactam 4 mcg) | MIC ([3]; with Tazobactam 8 mcg) | MIC ([4]; with Tazobactam 4 mcg) | MIC ([4]; with Tazobactam 8 mcg)
13.5 mm: Zone of Inhibition ([6]; with Tazobactam 10 mcg) | Zone of Inhibition ([7]; with Tazobactam 10 mcg)
Nil: Zone of Inhibition [6, 17] | Zone of Inhibition [7, 17] | Zone of Inhibition [8, 17] | Zone of Inhibition [9, 17] | Zone of Inhibition [10, 17] | Zone of Inhibition [11, 17]
(R): Interpretation of zone as per CLSI recommendations ([6]; Table 5, ESBL inhibitor 0 mcg) | Interpretation of zone as per CLSI recommendations [6, 18] | Interpretation of zone as per CLSI recommendations ([6]; Table 6, ESBL inhibitor 0 mcg) | Interpretation of zone as per CLSI recommendations [6, 19] | Interpretation of zone as per CLSI recommendations ([7]; Table 5, ESBL inhibitor 0 mcg) | Interpretation of zone as per CLSI recommendations [7, 18] | Interpretation of zone as per CLSI recommendations ([7]; Table 6, ESBL inhibitor 0 mcg) | Interpretation of zone as per CLSI recommendations [7, 19] | Interpretation of zone as per CLSI recommendations ([8]; Table 5, ESBL inhibitor 0 mcg) | Interpretation of zone as per CLSI recommendations [8, 18] | Interpretation of zone as per CLSI recommendations ([8]; Table 6, ESBL inhibitor 0 mcg) | Interpretation of zone as per CLSI recommendations [8, 19] | Interpretation of zone as per CLSI recommendations ([9]; Table 5, ESBL inhibitor 0 mcg) | Interpretation of zone as per CLSI recommendations [9, 18] | Interpretation of zone as per CLSI recommendations ([9]; Table 6, ESBL inhibitor 0 mcg) | Interpretation of zone as per CLSI recommendations [9, 19] | Interpretation of zone as per CLSI recommendations ([10]; Table 5, ESBL inhibitor 0 mcg) | Interpretation of zone as per CLSI recommendations [10, 18] | Interpretation of zone as per CLSI recommendations ([10]; Table 6, ESBL inhibitor 0 mcg) | Interpretation of zone as per CLSI recommendations [10, 19] | Interpretation of zone as per CLSI recommendations ([11]; Table 5, ESBL inhibitor 0 mcg) | Interpretation of zone as per CLSI recommendations [11, 18] | Interpretation of zone as per CLSI recommendations ([11]; Table 6, ESBL inhibitor 0 mcg) | Interpretation of zone as per CLSI recommendations [11, 19]
17 mm: Zone of Inhibition ([10]; with Tazobactam 10 mcg)
15.5 mm: Zone of Inhibition ([9]; with Tazobactam 10 mcg)

CC1(C)S[C@@H]2[C@H](NC(=O)[C@H](C(=O)O)c3ccsc3)C(=O)N2[C@H]1C(=O)O [Ticarcillin]
13.5 mm: Zone of Inhibition ([7]; with Clavulanic acid 10 mcg)
10 mm: Zone of Inhibition ([8]; with Clavulanic acid 10 mcg) | Zone of Inhibition ([9]; with Clavulanic acid 10 mcg) | Zone of Inhibition ([11]; with Clavulanic acid 10 mcg)
11.5 mm: Zone of Inhibition ([10]; with Clavulanic acid 10 mcg)
(R): Interpretation of zone as per CLSI recommendations ([6]; Table 5, ESBL inhibitor 0 mcg) | Interpretation of zone as per CLSI recommendations [6, 20] | Interpretation of zone as per CLSI recommendations ([6]; Table 6, ESBL inhibitor 0 mcg) | Interpretation of zone as per CLSI recommendations [6, 21] | Interpretation of zone as per CLSI recommendations ([7]; Table 5, ESBL inhibitor 0 mcg) | Interpretation of zone as per CLSI recommendations [7, 20] | Interpretation of zone as per CLSI recommendations ([7]; Table 6, ESBL inhibitor 0 mcg) | Interpretation of zone as per CLSI recommendations [7, 21] | Interpretation of zone as per CLSI recommendations ([8]; Table 5, ESBL inhibitor 0 mcg) | Interpretation of zone as per CLSI recommendations [8, 20] | Interpretation of zone as per CLSI recommendations ([8]; Table 6, ESBL inhibitor 0 mcg) | Interpretation of zone as per CLSI recommendations [8, 21] | Interpretation of zone as per CLSI recommendations ([9]; Table 5, ESBL inhibitor 0 mcg) | Interpretation of zone as per CLSI recommendations [9, 20] | Interpretation of zone as per CLSI recommendations ([9]; Table 6, ESBL inhibitor 0 mcg) | Interpretation of zone as per CLSI recommendations [9, 21] | Interpretation of zone as per CLSI recommendations ([10]; Table 5, ESBL inhibitor 0 mcg) | Interpretation of zone as per CLSI recommendations [10, 20] | Interpretation of zone as per CLSI recommendations ([10]; Table 6, ESBL inhibitor 0 mcg) | Interpretation of zone as per CLSI recommendations [10, 21] | Interpretation of zone as per CLSI recommendations ([11]; Table 5, ESBL inhibitor 0 mcg) | Interpretation of zone as per CLSI recommendations [11, 20] | Interpretation of zone as per CLSI recommendations ([11]; Table 6, ESBL inhibitor 0 mcg) | Interpretation of zone as per CLSI recommendations [11, 21]
> 64 µg/mL: MIC ([5]; with Tazobactam 4 mcg) | MIC ([5]; with Tazobactam 8 mcg)
9 mm: Zone of Inhibition [10, 17]
>64 µg/mL: MIC ([1]; with Tazobactam 4 mcg) | MIC ([1]; with Tazobactam 8 mcg) | MIC ([2]; with Tazobactam 4 mcg) | MIC ([2]; with Tazobactam 8 mcg) | MIC ([3]; with Tazobactam 4 mcg) | MIC ([3]; with Tazobactam 8 mcg) | MIC ([4]; with Tazobactam 4 mcg) | MIC ([4]; with Tazobactam 8 mcg)
Nil: Zone of Inhibition [6, 17] | Zone of Inhibition ([6]; with Clavulanic acid 10 mcg) | Zone of Inhibition [7, 17] | Zone of Inhibition [8, 17] | Zone of Inhibition [9, 17] | Zone of Inhibition [11, 17]
> 128 µg/mL: MIC [1, 12] | MIC [2, 13] | MIC [3, 14] | MIC [4, 15] | MIC [5, 16]
